Test results from patent US5958770A, “Glycoalkaloids” (priority 1990, dated 1999).
“Also recorded” adds a separate entry of the source. Like-named read-outs stand apart in the source and are kept apart here.

What was measured:
ovarian cancer cells [1] = assay: Inhibition of tritiated thymidine uptake, ovarian cancer cells
Experimental: (§1) The inhibition of cell replication by steroid alkaloids is determined by the inhibition of the incorporation of ^3 H thymidine into DNA. Using this technique, it should be possible to monitor any preferential inhibition of uptake of ^3 H thymidine by cancer cells.
(§2) Cells were maintained as monolayers in RPM1-1640 tissue culture media (Grant Island Biological Co) buffered with N-2-hydroxy-ethylpiperazine-N-2-ethanesulphonic acid pH 7.5 and supplemented with 10% heat inactivated fetal calf serum (FCS): (i) a human ovarian cancer cell line (C180-135), (ii) HeLa cells, (iii) human fibroblasts, and (iv) as a cell suspension of lymphoblastoid cells (EBV transformed lymphocytes). Monolayers were trypsinized to form a cell suspension. […] Cell concentration was adjusted to 2×10^5 cells/ml, and 2×10^4 cells were added in replicates of 10 to the wells (1×10^5 /ml well) of HA microtitre plates (Millipore Corp., USA). The cells were preincubated at 37.5° C. for 7 hours prior to the addition of 50 μl of the cytotoxic drug followed by the addition of 50 μl 5 uCi/ml of ^3 H thymidine, in the same tissue culture media 21 hours later. Incubation was continued for a total of 24 hours, which includes the pre-incubation time.
(§3) Appropriate DMSO cytotoxicity studies were also conducted. Solasodine glycosides were supplied as a mixture (BEC), and as separate components, solamargine, solasonine, a mixture of di- and mono-glycosides and the aglycone solasodine. All cytotoxic drugs were further diluted with HIFCS/TCM before testing. 5×10^4 ovarian cancer cells (200 μl/chamber of a chamber of microscope slide (Lab Tek Miles Scientific) were used. Controls received 50 μl HIFCS/TCM and experimental chambers 50 μl of solasodine glycosides (BEC) 1.5-3.8 μM/L after 7 hrs preincubation, and incubated for a further 3 hrs. Similarly, the cells were treated with the aglycone solasodine 19.4-96.8 μM/L. The cells were fixed and examined by the Papanicolaou method.

ovarian cancer cells [2] = assay: Solamargine cytotoxicity in presence and absence of carbohydrates, ovarian cancer cells; format: cell-based, human; settings: Homo sapiens, OvCa, solamargine 1.54 μM/L, read-out: Percentage Survival
Experimental: (§4) A mixture of solasodine glycosides (BEC), of which the active compound is solamargine and from which the aglycone solasodine is derived was prepared for use in cytotoxicity assays as determined by the uptake of tritiated thymidine. Inhibition studies were carried out with lactose, lactosyl-albumin, galactose or rhamnose (Sigma Chemical Co., USA). All experimental replicates were related to their own controls. Total volume of replicates was 250 μl (carbohydrates added in 50 μl tissue culture media+10% fetal calf serum), and the cell concentrations were 8×10^4 /ml.

HeLa cells = assay: Solamargine cytotoxicity in presence and absence of carbohydrates, HeLa cells; format: cell-based, human; settings: Homo sapiens, HeLa, solamargine 2.4 μM/L, read-out: Percentage Survival
Experimental: as §4

lymphoblastoid cells = assay: Solamargine cytotoxicity in presence and absence of carbohydrates, lymphoblastoid cells; format: cell-based; settings: Homo sapiens, Lymphoblastoid cell, LCL, solamargine 3.1 μM/L, read-out: Percentage Survival
Experimental: as §4

fibroblasts = assay: Solamargine cytotoxicity in presence and absence of carbohydrates, fibroblasts; format: cell-based, human; settings: Homo sapiens, Fibroblast, Fb, solamargine 3.1 μM/L, read-out: Percentage Survival
Experimental: as §4

ovarian cancer cells [3] = assay: Morphological examination of ovarian cancer cells (Papanicolaou); format: cell-based, human; settings: 17 hours; FIG. 4B
Experimental: Appropriate DMSO cytotoxicity studies were also conducted.
A human ovarian cancer cell line (C180-135) was grown as mono layers and trypsinized to form a cell suspension. The cells were adjusted to a concentration of 1×10^5 /ml (viability ≥95%) and 200 μl placed in each of the eight chambers of microscope chamber slides (Lab Tek, Miles Scientific). After 21 hours preincubation at 37.5° C., 50 μl of supplemented tissue culture media were added to the control chambers. To the other chambers were added 50 μl of solasodine glycosides (BEC) to give final concentrations of 3, 4.8, 6.7, 7.7, 9.6, 11.1 and 15.3 μM/L. Similarly, to a separate chamber slide was added the aglycone solasodine (19.4-96.8 μM/L). The slides were incubated at 37.5° C. for a further 3 hours, and the cells fixed in 95% V/V alcohol and stained by the Papanicolaou method. Two other chamber slides were prepared in a similar manner, but the solasodine glycosides and the aglycone were added at a final concentration of 0.77, 1.5, 2.3, 3.1 and 3.8 μM/L after 7 hours preincubation, and they incubated for a further 17 hours.

human spermatozoa = assay: Immobilization of spermatozoa; format: cell-based; settings: for effect on spermatozoa (words): solamargine/eosin, FIG. 5
Experimental: In order to observe any immobilization of spermatozoa, sperm (10×10^6 /ml) (50 μl) were placed on a microscope slide separated from 50 μl of solamargine (1 mg/ml) by 5 μl of eosin. A cover slip was then placed over the slide. […] This is a standard method known in the art. It was noted that sperm was not present on the side of the slide where the drop of solasodine glycosides was placed.

[4] = test system: ovarian cancer cells, HeLa cells, lymphoblastoid cells, fibroblasts; assay: Cytotoxicity / inhibition of tritiated thymidine uptake, cell types taken together
Experimental: as §1, §2, §3

in vitro [5] = settings: human, unstimulated lymphocytes
Experimental: (§5) This was cultured for 48 hours and pulsed with tritiated thymidine for a further 24 hours. In the inhibition studies, the cell concentration was 8×10^5 /ml.
(§6) All cells were harvested by vacuum filtration by washing in 250 μl of each of phosphate buffered saline, 5% trichloroacetic acid, 1.0M NaCl and 95% ethanol and subjected to β-scintillatian counting. Similarly, peripheral human blood lymphocytes were isolated and cultured 2×10^5 lymphocytes in CO2 1640TCM 10% HIFCS. Lymphocytes were stimulated with 20 μg/ml PHA, Con A or PWM, and cultured for 48 hrs followed by a 24 hr pulse. […] Cell concentrations were 8×10^4 /well total volume 250 μl. The dpm of the experimental replicates were expressed as a percentage of the mean value of the controls, and the mean value of the experimental replicates calculated.

in vitro [6] = settings: human, pha stimulated lymphocytes
Experimental: as §5, §6

in vitro [7] = settings: human, con a stimulated lymphocytes
Experimental: as §5, §6

unstimulated lymphocytes = assay: Inhibition of tritiated thymidine uptake, unstimulated lymphocytes; settings: unstimulated lymphocytes
Experimental: as §5, §6

[8] = test system: PHA stimulated lymphocytes; assay: Inhibition of tritiated thymidine uptake, PHA stimulated lymphocytes; settings: PHA stimulated lymphocytes
Experimental: as §5, §6

[9] = test system: PWM stimulated lymphocytes; assay: Inhibition of tritiated thymidine uptake, PWM stimulated lymphocytes; settings: PWM stimulated lymphocytes
Experimental: as §5, §6

[10] = 1.1 μM/L galactose, *** p < 0.001
[11] = 1.1 μM/L lactose, *** p < 0.001

In the case of `C[C@@H]1CC[C@@]2(NC1)O[C@H]1C[C@H]3[C@@H]4CC=C5C[C@@H](O[C@@H]6O[C@H](CO)[C@@H](O[C@@H]7O[C@@H](C)[C@H](O)[C@@H](O)[C@H]7O)[C@H](O)[C@H]6O[C@@H]6O[C@@H](C)[C@H](O)[C@@H](O)[C@H]6O)CC[C@]5(C)[C@H]4CC[C@]3(C)[C@H]1[C@@H]2C` [Solamargine, solamargine], the IC50 (ovarian cancer cells [1]; Homo sapiens, read-out: LD50 (dose to inhibit 50% tritiated thymidine uptake)) is reported as 1550 nM, the viability at 11.5 µM (ovarian cancer cells [1]; Homo sapiens, read-out: Percentage Cell Survival) is reported as 7 ± 0.8% and the “LD50 of solamargine less than that of vinblastine, chlorambucil or cis-platinum” value (ovarian cancer cells [1]; ovarian cancer cells, fold lower) is reported as 6-40 times. It also gave a viability at 1.54 µM (ovarian cancer cells [2]; 1.1 μM/L galactose, ** p = 0.001) of 79%, a viability at 1.54 µM (ovarian cancer cells [2]; 1.1 μM/L lactose, * p < 0.02 > 0.01) of 75% and a viability at 1.54 µM (ovarian cancer cells [2]; 1.1 μM/L rhamnose) of 67 ± 7.5%. It also gave a viability at 1.54 µM (ovarian cancer cells [2]; no carbohydrate) of 62 ± 7%, a viability at 2.4 µM (HeLa cells; 1.1 μM/L galactose) of 24 ± 2.2% and a viability at 2.4 µM (HeLa cells; 1.1 μM/L lactose) of 24 ± 2.9%. The viability at 2.4 µM (HeLa cells; 1.1 μM/L rhamnose) was 26 ± 2.1%, the viability at 2.4 µM (HeLa cells; no carbohydrate (first line)) was 25 ± 2.6% and the viability at 2.4 µM (HeLa cells; no carbohydrate (second line, with rhamnose)) was 24 ± 4%. For the same molecule, the viability at 3.1 µM (lymphoblastoid cells; [10]) was 42%, the viability at 3.1 µM (lymphoblastoid cells; [11]) was 47% and the viability at 3.1 µM (lymphoblastoid cells; 1.1 μM/L rhamnose) was 36 ± 4.5%. The viability at 3.1 µM (lymphoblastoid cells; no carbohydrate) was 34 ± 3%, the viability at 3.1 µM (fibroblasts; [10]) was 101% and the viability at 3.1 µM (fibroblasts; [11]) was 100%. For the same molecule, the viability at 3.1 µM (fibroblasts; 1.1 μM/L rhamnose, *** p < 0.001) was 87%, the viability at 3.1 µM (fibroblasts; no carbohydrate) was 58 ± 9.6% and the “morphological effect on ovarian cancer cells” value (ovarian cancer cells [3]) was “absence of cancer cells upon cytological examination”. The “time to immobilization of sperm” value (human spermatozoa; solamargine 1 mg/ml) was at most 15 s, the “effect on spermatozoa (words)” value (human spermatozoa) was “inhibit human spermatozoal motility” and the “effect on spermatozoa (words)” value (human spermatozoa; listed as solamargine) was “dead intact spermatozoa”. For the same molecule, the “preferential cytotoxicity for cancer cells” value ([4]; cancer cells relative to other cell types) was “preferentially inhibits the uptake of tritiated thymidine by cancer cells”, the “LD50 for ovarian cancer cell line and HeLa cells less than that for lymphoblastoid cells and fibroblasts” value ([4]; fold lower) was 1.5-3.3 times and the viability at 11.5 µM (in vitro [5]) was 76 ± 9.6%. For the same molecule, the viability at 11.5 µM (in vitro [6]) was 93 ± 4.4%, the viability at 11.5 µM (in vitro [7]) was 79 ± 4% and the “cytotoxicity (words)” value (unstimulated lymphocytes) was “limited effect; also recorded: limited cytotoxicity”. For the same molecule, the “cytotoxicity (words)” value [8] was “absence of cytotoxicity” and the “cytotoxicity (words)” value [9] was “absence of cytotoxicity”.
